{"source": "paper PMC8308585", "about": "“Design and Synthesis of Novel Thiazolo[5,4-d]pyrimidine Derivatives with High Affinity for Both the Adenosine A1 and A2A Receptors, and Efficacy in Animal Models of Depression” (Pharmaceuticals, 2021)", "key": {"human A1 AR": {"target": "T1, human A1 AR (Homo sapiens, UniProt P30542)", "T1 construct": "expressed in transfected cells; host or cells: CHO cells", "T1 sequence (P30542 1-326)": "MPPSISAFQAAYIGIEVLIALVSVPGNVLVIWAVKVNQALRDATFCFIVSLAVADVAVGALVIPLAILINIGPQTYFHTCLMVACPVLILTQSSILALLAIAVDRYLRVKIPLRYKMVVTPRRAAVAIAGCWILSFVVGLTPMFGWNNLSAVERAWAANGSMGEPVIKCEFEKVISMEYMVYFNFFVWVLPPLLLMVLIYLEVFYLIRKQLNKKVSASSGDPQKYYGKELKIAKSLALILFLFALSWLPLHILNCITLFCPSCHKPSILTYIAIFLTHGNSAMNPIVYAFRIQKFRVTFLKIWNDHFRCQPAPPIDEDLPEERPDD", "assay": "Radioligand binding, displacement of [3H]-CCPA at hA1 AR in CHO cells", "settings": "displacement of specific [3H]-CCPA binding, n = 3–6, mean ± SEM", "protocol": "CHO cells, stably expressing hARs, were grown adherently and maintained in Dulbecco’s modified Eagle’s medium (DMEM) with nutrient mixture F12 supplemented with 10% fetal bovine serum (FBS), penicillin (100 µg/mL), streptomycin (100 µg/mL), sodium pyruvate (1 mM), and geneticin (0.1 mg/mL).\nBriefly, cells were homogenized in cold lysis buffer (5 mM Tris HCl, 2 mM EDTA, pH 7.4), centrifuged at low speed spin for 10 min, and subsequently, the supernatant was spun at 37,000 rpm. Membrane pellet was resuspended in the specific buffer and stored at −80 °C.\nThe binding affinity of the novel compounds was evaluated using radioligand competition experiments in CHO cells stably transfected with hA1 AR, hA2A AR, and hA3 AR subtypes."}, "hA2A AR": {"target": "T2, hA2A AR (Homo sapiens, UniProt P29274)", "T2 construct": "expressed in transfected cells; host or cells: CHO cells", "T2 sequence (P29274 whole entry)": "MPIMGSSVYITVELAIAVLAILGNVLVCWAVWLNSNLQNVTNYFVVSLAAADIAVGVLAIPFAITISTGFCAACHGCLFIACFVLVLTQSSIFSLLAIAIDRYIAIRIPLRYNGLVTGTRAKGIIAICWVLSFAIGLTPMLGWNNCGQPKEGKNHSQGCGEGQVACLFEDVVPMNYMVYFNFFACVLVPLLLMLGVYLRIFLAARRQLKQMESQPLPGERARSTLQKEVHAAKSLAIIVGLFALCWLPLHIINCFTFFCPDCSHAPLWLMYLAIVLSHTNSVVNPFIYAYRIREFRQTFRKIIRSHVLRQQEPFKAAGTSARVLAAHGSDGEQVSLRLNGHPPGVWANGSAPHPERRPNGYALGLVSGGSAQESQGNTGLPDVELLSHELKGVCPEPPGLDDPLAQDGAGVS", "assay": "Inhibition of NECA-induced increase of cAMP in CHO cells expressing hA2A AR (GloSensor cAMP assay)", "type": "cell-based", "settings": "inhibition of NECA-stimulated adenylyl cyclase activity, mean ± standard error", "procedure": "(§1) Compound 18 was also tested to evaluate its antagonist behavior at the hA1 AR by assessing its ability to counteract NECA-induced decrease of cAMP accumulation.\n(§2) The intrinsic activity of understudy compounds was evaluated through the GloSensor cAMP assay, as described previously. Briefly, cells stably expressing the hA1, hA2A, and hA2B ARs and the biosensor were incubated for 2 h at rt in equilibration medium containing 3% v/v GloSensor cAMP reagent stock solution, 10% FBS, and 87% CO2 independent medium. Afterward, cells were dispensed in the wells of a 384-well plate and the reference agonist NECA or the compounds, at different concentrations, were tested. The antagonist profile of compounds was evaluated by assessing their ability to counteract NECA-induced increase (A2A and A2B ARs) or decrease (A1 AR) of cAMP accumulation. Responses were expressed as percentage of the maximal relative luminescence units (RLU).\n(§3) Binding data and concentration–response curves were fitted by a nonlinear regression with the Prism program (GraphPAD Prism 7 Software, San Diego, CA, USA). Each concentration was tested 3–5 times in duplicate and the Ki or IC50 (the concentration of antagonists that produces 50% inhibition of the agonist effect) values are given as the mean ± standard error (S.E.)."}, "mice": {"test_system": "mice", "assay": "Sucrose preference test, LPS-induced anhedonia", "type": "in vivo, mouse", "settings": "for Sucrose Preference (%), 6 h / Sucrose Preference (%), 24 h: LPS 1.25 mg kg^−1 i.p. mice; for Sucrose Preference (%), 6 h: 6 h after LPS, vehicle + LPS 42.3 ± 3.1; for Sucrose Preference (%), 24 h: 24 h after LPS, vehicle + LPS 38.0 ± 5.6", "procedure": "Anhedonia, or the inability to experience pleasure, is a common symptom of depression. The mood regulatory role of 18 was studied against anhedonia evaluated in the sucrose preference test in animals treated with lipopolysaccharide (LPS), a model of neuroinflammation-induced depressive-like syndrome. Compound 18 (10 mg kg^−1 and 30 mg kg^−1) was daily p.o administered for five consecutive days. Twenty-four hours after the last 18 treatment, LPS 1.25 mg kg^−1 was intraperitoneally injected. Immediately after LPS injection, mice were placed in cages equipped with two bottles: a bottle of 2% sucrose solution and a bottle of water (unsweetened tap water). The consumption of the 2% sucrose solution was evaluated 6 h and 24 h after LPS injection. Amitriptyline (15 mg kg^−1) was used as the reference drug administered following the same protocol.\nMale CD-1 albino mice (22–25 g; Envigo, Varese, Italy) were housed in CeSAL (Centro Stabulazione Animali da Laboratorio, University of Florence, Florence, Italy) and used at least one week after their arrival. Animals were housed in 26 cm × 41 cm cages (12 mice each) and fed with a standard laboratory diet and tap water ad libitum. They were kept at 23 ± 1 °C with a 12 h light/dark cycle, light at 7 a.m. Compound 18 was administered per o.s. whereas amitriptyline was by a s.c. route following the most widely used approach reported in the literature.\nLipopolysaccharide (LPS) from Escherichia coli was purchased from Sigma-Aldrich, (Milan, Italy) freshly dissolved in sterile saline, and injected intraperitoneally (i.p.) at the dose of 1.25 mg kg^−1 [49] after five consecutive days of treatment with compound 18, 1 h after the last administration of the compound. Behavioral tests were performed before 6 h and 24 h after LPS administration.\nMice were placed in cages equipped with a couple of bottles, one containing 2% sucrose solution, the second with water (unsweetened tap water). The consumption of the 2% sucrose solution was evaluated 6 h and 24 h after the beginning of the experiment. The preference index was calculated according to the following formula: preference index = volume consumed sucrose solution/(volume consumed sucrose solution + volume consumed water).\nBehavioral tests were performed by visual observation by researchers blinded to the treatments. Results were expressed as means ± SEM, variance was analyzed by ANOVA. A Bonferroni’s significant difference procedure was used as post-hoc comparison. p values of less than 0.05 and 0.01 were considered significant. Data were analyzed using the “Origin 8.1” software."}, "hA1 AR": {"target": "T3, hA1 AR (Homo sapiens, UniProt P30542)", "T3 construct": "expressed in transfected cells; host or cells: CHO cells", "T3 sequence (P30542 1-326)": "T1 sequence (P30542 1-326)", "assay": "Counteraction of NECA-induced decrease of cAMP in CHO cells expressing hA1 AR (GloSensor cAMP assay)", "type": "cell-based", "settings": "NECA-stimulated activity in CHO cells expressing hA1 AR, mean ± standard error", "procedure": "as §1, §2, §3"}, "[1]": {"settings": "10 mg kg^−1 p.o. daily for 5 days"}, "[2]": {"settings": "30 mg kg^−1 p.o. daily for 5 days"}}}
{"compound": "Nc1nc(-c2ccco2)nc2sc(Cc3ccccc3F)nc12", "note": "[compound 18, 2-(2-Fluorobenzyl)-5-(furan-2-yl)thiazolo[5,4-d]pyrimidin-7-amine]", "values": [{"measurement": "Ki", "setting": "human A1 AR", "value": "1.9 ± 0.08", "unit": "nM"}, {"measurement": "IC50", "setting": "hA2A AR", "value": "14 ± 3.4", "unit": "nM"}, {"measurement": "Sucrose Preference (%), 6 h", "setting": "mice; [1]", "value": "48.9 ± 6.7", "unit": "%"}, {"measurement": "Sucrose Preference (%), 24 h", "setting": "mice; [1]", "value": "39.7 ± 3.7", "unit": "%"}, {"measurement": "Sucrose Preference (%), 6 h", "setting": "mice; [2]", "value": "67.3 ± 1.6", "unit": "%"}, {"measurement": "Sucrose Preference (%), 24 h", "setting": "mice; [2]", "value": "64.9 ± 2.6", "unit": "%"}, {"measurement": "Anhedonia-like behavior induced by LPS, preference index (in words)", "setting": "mice; mouse, 30 mg kg^−1 p.o. daily for 5 days", "value": "able to revert the anhedonia-like behavior induced by LPS comparably to the effect of amitriptyline"}, {"measurement": "IC50", "setting": "hA1 AR", "value": 360, "unit": "nM"}]}
